Source: PMC11855478, “Bicyclic N,S-Acetals Containing Fused Cysteine-Amide System as New Heterocyclic Class Targeting Human Farnesyltransferase (FTase-h)” (International Journal of Molecular Sciences, 2025)

Tests used:
OVCAR-5 (Ovarian Cancer) = test: NCI one dose, OVCAR-5; type: cell-based, human; conditions: OVCAR-5, 1.00E-5 Molar one dose
Protocol: (§1) 3.4. Cell Proliferation Assay
(§2) Selected compounds were tested on a panel of 60 human cancer cell lines at the National Cancer Institute (NCI), Germantown, MD, USA. The cytotoxicity studies were conducted using a 48 h exposure protocol using the sulfo-rhodamine B assay.

DU-145 (Prostate Cancer) = test: NCI one dose, DU-145; type: cell-based, human; conditions: DU-145, 1.00E-5 Molar one dose
Protocol: as §1, §2

KM12 (Colon Cancer) = test: NCI one dose, KM12; type: cell-based, human; conditions: KM12, 1.00E-5 Molar one dose
Protocol: as §1, §2

[1] = test system: NCI-H23 (Non-Small Cell Lung Cancer); test: NCI one dose, NCI-H23; type: cell-based, human; conditions: NCI-H23, 1.00E-5 Molar one dose
Protocol: as §1, §2

786-0 (Renal Cancer) = test: NCI one dose, 786-0; type: cell-based, human; conditions: 786-0, 1.00E-5 Molar one dose
Protocol: as §1, §2

HT29 (Colon Cancer) = test: NCI one dose, HT29; type: cell-based, human; conditions: HT29, 1.00E-5 Molar one dose
Protocol: as §1, §2

[2] = test system: NCI/ADR-RES (Ovarian Cancer); test: NCI one dose, NCI/ADR-RES; type: cell-based, human; conditions: 1.00E-5 Molar one dose
Protocol: as §1, §2

HCC-2998 (Colon Cancer) = test: NCI one dose, HCC-2998; type: cell-based, human; conditions: HCC-2998, 1.00E-5 Molar one dose
Protocol: as §1, §2

[3] = test system: HOP-92 (Non-Small Cell Lung Cancer); test: NCI one dose, HOP-92; type: cell-based, human; conditions: HOP-92, 1.00E-5 Molar one dose
Protocol: as §1, §2

CCRF-CEM (Leukemia) = test: NCI one dose, CCRF-CEM; type: cell-based, human; conditions: 1.00E-5 Molar one dose
Protocol: as §1, §2

SW-620 (Colon Cancer) = test: NCI one dose, SW-620; type: cell-based, human; conditions: SW-620, 1.00E-5 Molar one dose
Protocol: as §1, §2

[4] = test system: A549/ATCC (Non-Small Cell Lung Cancer); test: NCI one dose, A549/ATCC; type: cell-based, human; conditions: 1.00E-5 Molar one dose
Protocol: as §1, §2

A498 (Renal Cancer) = test: NCI one dose, A498; type: cell-based, human; conditions: A498, 1.00E-5 Molar one dose
Protocol: as §1, §2

HCT-116 (Colon Cancer) = test: NCI one dose, HCT-116; type: cell-based, human; conditions: HCT-116, 1.00E-5 Molar one dose
Protocol: as §1, §2

RPMI-8226 (Leukemia) = test: NCI one dose, RPMI-8226; type: cell-based, human; conditions: RPMI-8226, 1.00E-5 Molar one dose
Protocol: as §1, §2

IGROV1 (Ovarian Cancer) = test: NCI one dose, IGROV1; type: cell-based, human; conditions: IGROV1, 1.00E-5 Molar one dose
Protocol: as §1, §2

K-562 leukaemia cells = test: NCI one dose, K-562; type: cell-based, human; conditions: K-562, 1.00E-5 Molar one dose
Protocol: as §1, §2

ACHN (Renal Cancer) = test: NCI one dose, ACHN; type: cell-based, human; conditions: 1.00E-5 Molar one dose
Protocol: as §1, §2

UO-31 renal cancer cells = test: NCI one dose, UO-31; type: cell-based, human; conditions: UO-31, 1.00E-5 Molar one dose
Protocol: as §1, §2

SK-MEL-2 (Melanoma) = test: NCI one dose, SK-MEL-2; type: cell-based, human; conditions: SK-MEL-2, 1.00E-5 Molar one dose
Protocol: as §1, §2

SK-MEL-28 (Melanoma) = test: NCI one dose, SK-MEL-28; type: cell-based, human; conditions: SK-MEL-28, 1.00E-5 Molar one dose
Protocol: as §1, §2

M14 (Melanoma) = test: NCI one dose, M14; type: cell-based, human; conditions: M14, 1.00E-5 Molar one dose
Protocol: as §1, §2

SN12C (Renal Cancer) = test: NCI one dose, SN12C; type: cell-based, human; conditions: 1.00E-5 Molar one dose
Protocol: as §1, §2

MALME-3M (Melanoma) = test: NCI one dose, MALME-3M; type: cell-based, human; conditions: 1.00E-5 Molar one dose
Protocol: as §1, §2

[5] = target: human farnesyltransferase (FTase) (Homo sapiens, UniProt P49354+P49356); test: FTase inhibitory assay (fluorescence, Dansyl-GCVLS); type: biochemical; conditions: for % FTI: inhibition of human FTase at 100 μM of tested compound, mean of two experiments
Protocol: With 40 new products in hand, the determination of their inhibitory activity on human farnesyl-transferase (FTase) in vitro was first undertaken. Dimethyl sulfoxide (DMSO) was used as the negative control, and Chaetomellic acid A was the positive reference in all assays. At the outset, and in order to select only significant results, products with an inhibitory power greater than 60% at an initial screening concentration of 100 µM were retained for the determination of their IC50 and, therefore, for further discussion. Moreover, given the number of products tested, they are grouped into three subfamilies on the basis of the degree of the sulphur atom oxidation (series of sulfides, series of sulfoxides, and series of sulfones), and the results obtained are grouped in Table 1, Table 2 and Table 3.
3.3. FTase Inhibitory Assay
Assays were realized in 96-well plates, prepared with a Biomek NKMC and a Biomek 3000 from Beckman Coulter, and read on a Wallac Victor fluorimeter from PerkinElmer. Per well, 20 µL of farnesyl pyrophosphate (10 μM) was added to 180 µL of a solution containing 2 µL of varied concentrations of potential inhibitors (dissolved in DMSO) and 178 μL of a solution composed of 10 μL of partially purified recombinant human FTase (15 µg mL^−1) and 1.0 µL of Dansyl-GCVLS peptide (in the following buffer: 5.6 mM DTT, 5.6 mM MgCl2, 12 μM ZnCl2 and 0.2% (w/v) octyl-β-D-glucopyranoside, 52 mM Tris/HCl, pH 7.5). Fluorescence was recorded for 15 min (0.7 s per well, 20 repeats) at 30 °C with an excitation filter at 340 nm and an emission filter of 486 nm. Each measurement was reproduced twice, in duplicate. The kinetic experiments were realized under the same conditions, either with FPP as varied substrate with a constant concentration of Dns-GCVLS of 2.5 μM or with Dns-GCVLS as varied substrate with a constant concentration of FPP of 10 μM. Non-linear regressions were performed using the Excel software.

PC-3 (Prostate Cancer) = test: NCI one dose, PC-3; type: cell-based, human; conditions: PC-3, 1.00E-5 Molar one dose
Protocol: as §1, §2

OVCAR-3 (Ovarian Cancer) = test: NCI one dose, OVCAR-3; type: cell-based, human; conditions: OVCAR-3, 1.00E-5 Molar one dose
Protocol: as §1, §2

COc1ccc(CNC(=O)[C@@H]2CS[C@H]3c4ccccc4C(=O)N23)cc1 [4aF]
Growth Percent (OVCAR-5 (Ovarian Cancer)): 95.48%
Growth Percent (DU-145 (Prostate Cancer)): 116.46%
Growth Percent (KM12 (Colon Cancer)): 100.55%
Growth Percent [1]: 108.19%
Growth Percent (786-0 (Renal Cancer)): 97.97%
Growth Percent (HT29 (Colon Cancer)): 103.88%
Growth Percent [2]: 103.64%
Growth Percent (HCC-2998 (Colon Cancer)): 114.93%
Growth Percent [3]: 86.03%
Growth Percent (CCRF-CEM (Leukemia)): 97.27%
Growth Percent (SW-620 (Colon Cancer)): 105.03%
Growth Percent [4]: 95.62%
Growth Percent (A498 (Renal Cancer)): 105.77%
Growth Percent (HCT-116 (Colon Cancer)): 101.21%
Growth Percent (RPMI-8226 (Leukemia)): 101.90%
Growth Percent (IGROV1 (Ovarian Cancer)): 93.78%
Growth Percent (K-562 leukaemia cells): 99.90%
Growth Percent (ACHN (Renal Cancer)): 95.49%
Growth Percent (UO-31 renal cancer cells): 75.18%
Growth Percent (SK-MEL-2 (Melanoma)): 118.58%
Growth Percent (SK-MEL-28 (Melanoma)): 102.14%
Growth Percent (M14 (Melanoma)): 99.91%
Growth Percent (SN12C (Renal Cancer)): 110.21%
Growth Percent (MALME-3M (Melanoma)): 100.21%
IC50 ([5]; human FTase in vitro): 2.73 µM
% FTI [5]: 80%
Growth Percent (PC-3 (Prostate Cancer)): 90.27%
Growth Percent (OVCAR-3 (Ovarian Cancer)): 106.29%

COc1cc(CNC(=O)[C@@H]2CS[C@H]3c4ccccc4C(=O)N23)cc(OC)c1OC [4aJ]
Growth Percent (OVCAR-5 (Ovarian Cancer)): 94.62%
Growth Percent (DU-145 (Prostate Cancer)): 113.37%
Growth Percent (KM12 (Colon Cancer)): 103.41%
Growth Percent [1]: 100.31%
Growth Percent (786-0 (Renal Cancer)): 90.66%
Growth Percent (HT29 (Colon Cancer)): 103.83%
Growth Percent [2]: 95.00%
Growth Percent (HCC-2998 (Colon Cancer)): 113.62%
Growth Percent [3]: 93.68%
Growth Percent (CCRF-CEM (Leukemia)): 96.01%
Growth Percent (SW-620 (Colon Cancer)): 104.14%
Growth Percent [4]: 98.15%
Growth Percent (A498 (Renal Cancer)): 100.74%
Growth Percent (HCT-116 (Colon Cancer)): 92.64%
Growth Percent (RPMI-8226 (Leukemia)): 95.00%
Growth Percent (IGROV1 (Ovarian Cancer)): 102.86%
Growth Percent (K-562 leukaemia cells): 90.55%
Growth Percent (ACHN (Renal Cancer)): 100.59%
Growth Percent (UO-31 renal cancer cells): 84.08%
Growth Percent (SK-MEL-2 (Melanoma)): 95.25%
Growth Percent (SK-MEL-28 (Melanoma)): 109.82%
Growth Percent (M14 (Melanoma)): 94.92%
Growth Percent (SN12C (Renal Cancer)): 99.01%
Growth Percent (MALME-3M (Melanoma)): 105.79%
% FTI [5]: 23%
Growth Percent (PC-3 (Prostate Cancer)): 87.87%
Growth Percent (OVCAR-3 (Ovarian Cancer)): 105.82%

O=C(NCc1cccc(C(F)(F)F)c1)[C@@H]1CS[C@H]2c3ccccc3C(=O)N12 [4aD]
Growth Percent (OVCAR-5 (Ovarian Cancer)): 97.67%
Growth Percent (DU-145 (Prostate Cancer)): 110.52%
Growth Percent (KM12 (Colon Cancer)): 98.82%
Growth Percent [1]: 100.33%
Growth Percent (786-0 (Renal Cancer)): 88.74%
Growth Percent (HT29 (Colon Cancer)): 91.88%
Growth Percent [2]: 92.62%
Growth Percent (HCC-2998 (Colon Cancer)): 121.37%
Growth Percent [3]: 79.43%
Growth Percent (CCRF-CEM (Leukemia)): 99.20%
Growth Percent (SW-620 (Colon Cancer)): 107.41%
Growth Percent [4]: 94.49%
Growth Percent (A498 (Renal Cancer)): 103.16%
Growth Percent (HCT-116 (Colon Cancer)): 91.63%
Growth Percent (RPMI-8226 (Leukemia)): 94.54%
Growth Percent (IGROV1 (Ovarian Cancer)): 95.38%
Growth Percent (K-562 leukaemia cells): 89.33%
Growth Percent (ACHN (Renal Cancer)): 101.09%
Growth Percent (UO-31 renal cancer cells): 78.58%
Growth Percent (SK-MEL-2 (Melanoma)): 94.10%
Growth Percent (SK-MEL-28 (Melanoma)): 108.89%
Growth Percent (M14 (Melanoma)): 97.50%
Growth Percent (SN12C (Renal Cancer)): 98.14%
Growth Percent (MALME-3M (Melanoma)): 106.15%
% FTI [5]: 37%
Growth Percent (PC-3 (Prostate Cancer)): 86.39%
Growth Percent (OVCAR-3 (Ovarian Cancer)): 104.21%

O=C(NCc1ccccc1)[C@@H]1CS[C@H]2c3ccccc3C(=O)N12 [4aA]
Growth Percent (OVCAR-5 (Ovarian Cancer)): 91.72%
Growth Percent (DU-145 (Prostate Cancer)): 111.90%
Growth Percent (KM12 (Colon Cancer)): 110.51%
Growth Percent [1]: 100.85%
Growth Percent (786-0 (Renal Cancer)): 85.46%
Growth Percent (HT29 (Colon Cancer)): 99.44%
Growth Percent [2]: 99.86%
Growth Percent (HCC-2998 (Colon Cancer)): 101.83%
Growth Percent [3]: 87.72%
Growth Percent (CCRF-CEM (Leukemia)): 96.52%
Growth Percent (SW-620 (Colon Cancer)): 102.46%
Growth Percent [4]: 97.86%
Growth Percent (A498 (Renal Cancer)): 102.15%
Growth Percent (HCT-116 (Colon Cancer)): 87.66%
Growth Percent (RPMI-8226 (Leukemia)): 105.32%
Growth Percent (IGROV1 (Ovarian Cancer)): 105.80%
Growth Percent (K-562 leukaemia cells): 101.44%
Growth Percent (ACHN (Renal Cancer)): 102.35%
Growth Percent (UO-31 renal cancer cells): 91.66%
Growth Percent (SK-MEL-2 (Melanoma)): 105.03%
Growth Percent (SK-MEL-28 (Melanoma)): 110.09%
Growth Percent (M14 (Melanoma)): 94.47%
Growth Percent (SN12C (Renal Cancer)): 98.99%
Growth Percent (MALME-3M (Melanoma)): 111.55%
Growth Percent (PC-3 (Prostate Cancer)): 96.96%
Growth Percent (OVCAR-3 (Ovarian Cancer)): 112.79%
